Test system: 857933-349-R-J2-PDC complex spheroid viability
Assay: Anticancer human tumor 857933-349-R-J2-PDC patient-derived colon adenocarcinoma cell line growth inhibition [POLQ]
Settings: for IC50: curve of first compound; for viability, T/C: stronger effect = lower value
Summary of the method: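 Patient-derived tumour cells were co-cultured with HUVEC and mesenchymal stem cells as multicellular spheroids at 37 °C. They were treated with POLQ inhibitors (novobiocin, ART-558, RP6685) alone or combined with other agents. Top concentrations were at or near clinical Cmax (otherwise 10 microM; SN-38 at 1 microM), decreasing in half-log steps.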

[1] = second compound 0.0316 µM, first compound 0.0316 µM
[2] = second compound 0.0316 µM, first compound 0.1 µM
[3] = second compound 0.0316 µM, first compound 0.316 µM
[4] = second compound 0.0316 µM, first compound 1 µM
[5] = second compound 0.0316 µM, first compound 3.16 µM
[6] = second compound 0.0316 µM, first compound 10 µM
[7] = second compound 0.1 µM, first compound 0.0316 µM
[8] = second compound 0.1 µM, first compound 0.1 µM
[9] = second compound 0.1 µM, first compound 0.316 µM
[10] = second compound 0.1 µM, first compound 1 µM
[11] = second compound 0.1 µM, first compound 3.16 µM
[12] = second compound 0.1 µM, first compound 10 µM
[13] = second compound 0.316 µM, first compound 0.0316 µM
[14] = second compound 0.316 µM, first compound 0.1 µM
[15] = second compound 0.316 µM, first compound 0.316 µM
[16] = second compound 0.316 µM, first compound 1 µM
[17] = second compound 0.316 µM, first compound 3.16 µM
[18] = second compound 0.316 µM, first compound 10 µM
[19] = second compound 1 µM, first compound 0.0316 µM
[20] = second compound 1 µM, first compound 0.1 µM
[21] = second compound 1 µM, first compound 0.316 µM
[22] = second compound 1 µM, first compound 1 µM
[23] = second compound 1 µM, first compound 3.16 µM
[24] = second compound 1 µM, first compound 10 µM
[25] = second compound 3.16 µM, first compound 0.0316 µM
[26] = second compound 3.16 µM, first compound 0.1 µM
[27] = second compound 3.16 µM, first compound 0.316 µM
[28] = second compound 3.16 µM, first compound 1 µM
[29] = second compound 3.16 µM, first compound 3.16 µM
[30] = second compound 3.16 µM, first compound 10 µM
[31] = second compound 10 µM, first compound 0.0316 µM
[32] = second compound 10 µM, first compound 0.1 µM
[33] = second compound 10 µM, first compound 0.316 µM
[34] = second compound 10 µM, first compound 1 µM
[35] = second compound 10 µM, first compound 3.16 µM
[36] = second compound 10 µM, first compound 10 µM
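Also: spheroids exposed to compounds for seven days before readout.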

SMILES: COc1cc(C2c3cc4c(cc3C(OC3OC5COC(C)OC5C(O)C3O)C3COC(=O)C23)OCO4)cc(OC)c1O (stereo unspecified) + Nc1ccc(C#CCN(C(=O)Cc2ncc(C(F)(F)F)cc2C(F)(F)F)c2ccc(F)cc2)nn1
- IC50 (second compound 0.0316 µM): 1290 nM
- IC50 (second compound 0.1 µM): 747 nM
- IC50 (second compound 0.316 µM): 567 nM
- IC50 (second compound 1 µM): 532 nM
- IC50 (second compound 3.16 µM): 512 nM
- IC50 (second compound 10 µM): 599 nM
- viability, T/C [1]: 97.1%
- viability, T/C [2]: 64.8%
- viability, T/C [3]: 64.5%
- viability, T/C [4]: 64%
- viability, T/C [5]: 38%
- viability, T/C [6]: 25.9%
- viability, T/C [7]: 92.5%
- viability, T/C [8]: 72.5%
- viability, T/C [9]: 53.6%
- viability, T/C [10]: 52.3%
- viability, T/C [11]: 36.8%
- viability, T/C [12]: 22.1%
- viability, T/C [13]: 94.2%
- viability, T/C [14]: 68.4%
- viability, T/C [15]: 53.5%
- viability, T/C [16]: 50.6%
- viability, T/C [17]: 35.9%
- viability, T/C [18]: 25.3%
- viability, T/C [19]: 101%
- viability, T/C [20]: 68%
- viability, T/C [21]: 54.3%
- viability, T/C [22]: 51.9%
- viability, T/C [23]: 33.3%
- viability, T/C [24]: 31.5%
- viability, T/C [25]: 85.3%
- viability, T/C [26]: 74%
- viability, T/C [27]: 53%
- viability, T/C [28]: 44.6%
- viability, T/C [29]: 31%
- viability, T/C [30]: 27.6%
- viability, T/C [31]: 88%
- viability, T/C [32]: 71.5%
- viability, T/C [33]: 60%
- viability, T/C [34]: 43.1%
- viability, T/C [35]: 34.1%
- viability, T/C [36]: 32.2%

SMILES: Nc1ccn(C2OC(CO)C(O)C2(F)F)c(=O)n1 (stereo unspecified) + Nc1ccc(C#CCN(C(=O)Cc2ncc(C(F)(F)F)cc2C(F)(F)F)c2ccc(F)cc2)nn1
- IC50 (second compound 0.0316 µM): 87 nM
- IC50 (second compound 0.1 µM): 114 nM
- IC50 (second compound 0.316 µM): 125 nM
- IC50 (second compound 1 µM): 121 nM
- IC50 (second compound 3.16 µM): 109 nM
- IC50 (second compound 10 µM): 115 nM
- viability, T/C [1]: 74.7%
- viability, T/C [2]: 46.7%
- viability, T/C [3]: 14.3%
- viability, T/C [4]: 9.47%
- viability, T/C [5]: 6.73%
- viability, T/C [6]: 6.61%
- viability, T/C [7]: 65.3%
- viability, T/C [8]: 54.7%
- viability, T/C [9]: 14.5%
- viability, T/C [10]: 8.76%
- viability, T/C [11]: 7.02%
- viability, T/C [12]: 6.34%
- viability, T/C [13]: 71.5%
- viability, T/C [14]: 59.6%
- viability, T/C [15]: 9.98%
- viability, T/C [16]: 9.36%
- viability, T/C [17]: 5.55%
- viability, T/C [18]: 7.25%
- viability, T/C [19]: 81%
- viability, T/C [20]: 57.6%
- viability, T/C [21]: 12%
- viability, T/C [22]: 11.3%
- viability, T/C [23]: 9.17%
- viability, T/C [24]: 6.73%
- viability, T/C [25]: 69.6%
- viability, T/C [26]: 52.8%
- viability, T/C [27]: 17.3%
- viability, T/C [28]: 9.05%
- viability, T/C [29]: 6.17%
- viability, T/C [30]: 7.31%
- viability, T/C [31]: 66.3%
- viability, T/C [32]: 54.9%
- viability, T/C [33]: 15%
- viability, T/C [34]: 11.1%
- viability, T/C [35]: 12.4%
- viability, T/C [36]: 10.2%

SMILES: O=c1[nH]cc(F)c(=O)[nH]1 + Nc1ccc(C#CCN(C(=O)Cc2ncc(C(F)(F)F)cc2C(F)(F)F)c2ccc(F)cc2)nn1
- IC50 (second compound 0.0316 µM): 2150 nM
- IC50 (second compound 0.1 µM): 2130 nM
- IC50 (second compound 0.316 µM): 2450 nM
- IC50 (second compound 1 µM): 2280 nM
- IC50 (second compound 3.16 µM): 2330 nM
- IC50 (second compound 10 µM): 2170 nM
- viability, T/C [1]: 101%
- viability, T/C [2]: 98.7%
- viability, T/C [3]: 100%
- viability, T/C [4]: 83.4%
- viability, T/C [5]: 33.1%
- viability, T/C [6]: 25.1%
- viability, T/C [7]: 102%
- viability, T/C [8]: 93.5%
- viability, T/C [9]: 93.3%
- viability, T/C [10]: 75.2%
- viability, T/C [11]: 36.5%
- viability, T/C [12]: 22.7%
- viability, T/C [13]: 106%
- viability, T/C [14]: 120%
- viability, T/C [15]: 97.2%
- viability, T/C [16]: 84.4%
- viability, T/C [17]: 39.2%
- viability, T/C [18]: 23.3%
- viability, T/C [19]: 106%
- viability, T/C [20]: 103%
- viability, T/C [21]: 97.5%
- viability, T/C [22]: 81.6%
- viability, T/C [23]: 37.2%
- viability, T/C [24]: 22.4%
- viability, T/C [25]: 105%
- viability, T/C [26]: 106%
- viability, T/C [27]: 91%
- viability, T/C [28]: 83.3%
- viability, T/C [29]: 37.2%
- viability, T/C [30]: 21.5%
- viability, T/C [31]: 95.7%
- viability, T/C [32]: 87.1%
- viability, T/C [33]: 92.7%
- viability, T/C [34]: 87.5%
- viability, T/C [35]: 31.8%
- viability, T/C [36]: 27.8%
